Data reported in US7511144B2, “Reverse hydroxamic acid derivatives” (Kaken Pharmaceutical Co., Ltd., priority 2001, dated 2009).
Read-outs that look alike come from different tables or passages of the source.

How the values were obtained:
[1] = biological target: T1, Human MMP17 (Homo sapiens, UniProt Q9ULZ9); test: MMP17 inhibition test; type: biochemical; settings: concentration required for 50% inhibition of enzyme activity; read-out: IC50 value MMP-17
T1 construct: purchased Calbiochem 475940
T1 sequence (Q9ULZ9 126-300 limits assumed): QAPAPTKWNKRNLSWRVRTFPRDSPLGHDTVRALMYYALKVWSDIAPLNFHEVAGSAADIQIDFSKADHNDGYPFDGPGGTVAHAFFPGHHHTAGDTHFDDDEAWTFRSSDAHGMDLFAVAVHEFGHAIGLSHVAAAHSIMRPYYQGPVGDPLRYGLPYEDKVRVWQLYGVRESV

[2] = biological target: T2, TACE (Homo sapiens, UniProt P78536); test: TACE inhibition experiment (in vitro); type: biochemical
T2 construct: made in house; host or cells: mammalian cells or insect cells

[3] = biological target: T3, Human MMP13 (Homo sapiens, UniProt P45452); test: MMP13 inhibition experiment; type: biochemical; settings: concentration required for 50% inhibition of enzyme activity; read-out: IC50 value MMP-13
T3 construct: purchased Chemicon CC068
Method: Human MMP13 (Chemicon #CC068) in amount of 90 μL (200 ng) was activated by mixing with 10 μL of 10 mM APMA, followed by reaction for 1 hour at 37° C. This enzyme solution in amount of 0.6 μL was diluted to 90 μL with the assay buffer A, which was added to 90 μL of 20 μM fluorescent substrate (Dnp-Pro-Cha-Gly-Cys(Me)-His-Ala-Lys(Nma)-NH2) prepared in the assay buffer B, followed by reaction for 4 hours at 37° C.

[4] = biological target: T4, Human MMP3 (Homo sapiens, UniProt P08254); test: MMP3 inhibition experiment; type: biochemical; settings: concentration required for 50% inhibition of enzyme activity; read-out: IC50 value MMP-3
T4 construct: purchased Calbiochem 444217
Outline: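 Recombinant human MMP3 (5 ng) mixed with fluorogenic peptide NFF-3 (20 μM stock solution) and incubated 5 hours at 37° C; cleavage followed by fluorescence of the quenched substrate.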

[5] = test system: TNF-α production (release); test: Study for suppression of TNF-α production (release) in vivo; settings: male Lewis rats, LPS 1 mL/kg i.v.; test compound 3 mg/kg subcutaneous 30 minutes later; plasma TNF-α 90 minutes after LPS (ELISA)
Method: Lipopolysaccharide (LPS) from E. coli (available from SIGMA) was dissolved in physiological saline to prepare a solution of LPS (1 mg/mL). […] The rats received the LPS solution (1 mL/kg) intravenously, and 30 minutes later, the prepared solution of the test compound was administered subcutaneously (5 mL/kg, containing 3 mg of test compound/kg). 90 minutes after administration of LPS, blood was collected from the tail vein and centrifuged for 10 minutes at 3000 rpm at 4° C. to obtain plasma. The plasma TNF-α concentration was determined by an ELISA kit specific for rat TNF-α.

[6] = biological target: T5, Human MMP14 (Homo sapiens, UniProt P50281); test: MMP14 inhibition experiment; type: biochemical; settings: concentration required for 50% inhibition of enzyme activity; read-out: IC50 value MMP-14
T5 construct: purchased Biogenesis or Calbiochem 5980-1461 or 475935
Outline: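 Fluorescence assay: substrate Dnp-Pro-Cha-Gly-Cys(Me)-His-Ala-Lys(Nma)-NH2 (20 μM before equal-volume mixing) incubated at 37° C for 5 hours with 4 ng human MMP14.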

[7] = biological target: T6, Human MMP1 (Homo sapiens, UniProt P03956); test: MMP1 inhibition experiment; type: biochemical; settings: read-out: IC50 value MMP-1
T6 construct: purchased Calbiochem 444208
T6 sequence (P03956 100-469): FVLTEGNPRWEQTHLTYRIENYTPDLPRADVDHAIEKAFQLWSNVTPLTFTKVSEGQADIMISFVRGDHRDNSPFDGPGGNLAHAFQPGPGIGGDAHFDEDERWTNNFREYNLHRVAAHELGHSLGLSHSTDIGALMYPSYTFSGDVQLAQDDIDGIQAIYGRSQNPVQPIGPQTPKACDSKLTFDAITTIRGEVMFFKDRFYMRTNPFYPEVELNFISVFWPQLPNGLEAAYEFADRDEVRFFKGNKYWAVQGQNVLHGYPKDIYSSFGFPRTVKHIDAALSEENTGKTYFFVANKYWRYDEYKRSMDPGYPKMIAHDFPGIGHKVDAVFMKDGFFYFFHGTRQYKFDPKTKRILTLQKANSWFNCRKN
Method: (§1) The methods of inhibition experiments carried out for various MMPs are described below.
This enzyme solution in amount of 10 μL was diluted to 90 μL with the assay buffer A, which was added to 90 μL of 20 μM fluorescent substrate (Dnp-Pro-Cha(β-cyclohexylalanyl)-Gly-Cys(Me)-His-Ala-Lys(Nma)-NH2) prepared in the assay buffer B, followed by reaction for 5 hours at 37° C.

[8] = biological target: T7, Human MMP9 (Homo sapiens, UniProt P14780); test: MMP9 inhibition experiment; type: biochemical; settings: read-out: IC50 value MMP-9
T7 construct: purchased Calbiochem 444231
Method: as §1
This enzyme solution in amount of 1 μL was diluted to 90 μL with the assay buffer A, which was added to 90 μL of 20 μM fluorescent substrate (Dnp-Pro-Cha-Gly-Cys(Me)-His-Ala-Lys(Nma)-NH2) prepared in the assay buffer B, followed by reaction for 4 hours at 37° C.

[9] = biological target: T8, Human MMP8 (Homo sapiens, UniProt P22894); test: MMP8 inhibition experiment; type: biochemical; settings: concentration required for 50% inhibition of enzyme activity; read-out: IC50 value MMP-8
T8 construct: purchased Calbiochem 444229
Outline: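 Human MMP8 activated with APMA for 1 h at 37° C, then incubated with fluorogenic peptide MOCAc-Pro-Leu-Gly-Leu-A2pr(Dnp)-Ala-Arg-NH2 (20 μM stock) for 5 hours at 37° C. Fluorescent substrate cleavage serves as read-out.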

[10] = biological target: T9, Human MMP2 (Homo sapiens, UniProt P08253); test: MMP2 inhibition experiment; type: biochemical; settings: concentration required for 50% inhibition of enzyme activity; read-out: IC50 value MMP-2
T9 construct: purchased Calbiochem 444213
T9 sequence (P08253 110-660): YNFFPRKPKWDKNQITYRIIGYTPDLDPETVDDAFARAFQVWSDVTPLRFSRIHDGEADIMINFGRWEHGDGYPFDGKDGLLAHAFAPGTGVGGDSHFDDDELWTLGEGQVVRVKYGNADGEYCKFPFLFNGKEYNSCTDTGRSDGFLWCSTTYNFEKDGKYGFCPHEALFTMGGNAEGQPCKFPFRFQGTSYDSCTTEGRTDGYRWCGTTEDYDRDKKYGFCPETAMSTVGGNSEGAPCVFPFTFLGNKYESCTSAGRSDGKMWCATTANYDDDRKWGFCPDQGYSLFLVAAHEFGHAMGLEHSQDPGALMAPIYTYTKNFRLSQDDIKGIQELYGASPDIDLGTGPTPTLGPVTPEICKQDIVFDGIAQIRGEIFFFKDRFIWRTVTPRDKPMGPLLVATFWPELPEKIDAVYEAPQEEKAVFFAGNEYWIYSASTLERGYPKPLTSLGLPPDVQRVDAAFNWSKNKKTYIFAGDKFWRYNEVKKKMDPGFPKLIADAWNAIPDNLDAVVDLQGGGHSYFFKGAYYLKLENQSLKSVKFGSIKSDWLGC
Method: This enzyme solution in amount of 10 μL was diluted to 90 μL with the assay buffer A, which was added to 90 μL of 20 μM fluorescent substrate (MOCAc((7-methoxycoumarin-4-yl)acetyl)-Pro-Leu-Gly-Leu-A2pr(Dnp)-Ala-Arg-NH2, Peptide Institute, Inc., #3163-v) prepared in the assay buffer B, followed by reaction for 5 hours at 37° C.

[11] = concentration required for 50% inhibition of enzyme activity

T7 sequence (P14780 107-707 limits assumed): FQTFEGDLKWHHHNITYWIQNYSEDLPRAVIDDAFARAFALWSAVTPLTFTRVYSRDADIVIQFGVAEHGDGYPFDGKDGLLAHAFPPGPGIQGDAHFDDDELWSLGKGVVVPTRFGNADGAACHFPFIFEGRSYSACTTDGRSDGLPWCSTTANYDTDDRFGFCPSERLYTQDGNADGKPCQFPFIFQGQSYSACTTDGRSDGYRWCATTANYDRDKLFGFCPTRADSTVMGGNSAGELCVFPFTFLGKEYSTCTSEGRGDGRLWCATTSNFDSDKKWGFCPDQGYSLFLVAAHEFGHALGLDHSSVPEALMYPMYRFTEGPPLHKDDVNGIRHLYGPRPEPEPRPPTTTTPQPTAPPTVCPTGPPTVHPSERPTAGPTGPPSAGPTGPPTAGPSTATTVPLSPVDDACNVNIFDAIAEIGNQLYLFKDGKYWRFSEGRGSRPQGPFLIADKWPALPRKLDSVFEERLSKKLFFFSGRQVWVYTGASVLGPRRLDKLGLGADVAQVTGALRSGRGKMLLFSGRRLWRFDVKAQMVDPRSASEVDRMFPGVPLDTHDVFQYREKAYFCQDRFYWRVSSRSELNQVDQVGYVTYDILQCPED
T2 sequence (P78536 215-824): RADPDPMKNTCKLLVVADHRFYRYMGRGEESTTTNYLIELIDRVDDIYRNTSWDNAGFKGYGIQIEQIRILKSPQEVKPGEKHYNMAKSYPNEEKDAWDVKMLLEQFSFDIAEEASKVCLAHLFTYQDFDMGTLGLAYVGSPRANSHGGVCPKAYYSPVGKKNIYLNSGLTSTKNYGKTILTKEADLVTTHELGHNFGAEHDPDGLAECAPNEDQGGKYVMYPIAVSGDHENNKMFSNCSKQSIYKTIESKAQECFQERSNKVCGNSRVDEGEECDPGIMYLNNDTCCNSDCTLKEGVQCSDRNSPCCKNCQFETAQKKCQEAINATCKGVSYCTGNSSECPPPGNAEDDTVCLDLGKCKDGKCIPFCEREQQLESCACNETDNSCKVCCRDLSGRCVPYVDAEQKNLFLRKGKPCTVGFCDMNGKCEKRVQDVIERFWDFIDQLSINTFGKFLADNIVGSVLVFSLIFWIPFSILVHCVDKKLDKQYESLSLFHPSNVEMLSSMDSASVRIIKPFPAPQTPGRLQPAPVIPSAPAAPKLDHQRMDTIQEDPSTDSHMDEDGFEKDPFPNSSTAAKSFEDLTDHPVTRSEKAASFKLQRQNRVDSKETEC
T4 sequence (P08254 100-272 limits assumed): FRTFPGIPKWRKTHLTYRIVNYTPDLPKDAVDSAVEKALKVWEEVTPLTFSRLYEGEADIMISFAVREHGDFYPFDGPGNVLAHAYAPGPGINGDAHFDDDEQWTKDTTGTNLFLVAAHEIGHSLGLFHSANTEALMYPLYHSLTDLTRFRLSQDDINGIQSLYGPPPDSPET
T8 sequence (P22894 101-467): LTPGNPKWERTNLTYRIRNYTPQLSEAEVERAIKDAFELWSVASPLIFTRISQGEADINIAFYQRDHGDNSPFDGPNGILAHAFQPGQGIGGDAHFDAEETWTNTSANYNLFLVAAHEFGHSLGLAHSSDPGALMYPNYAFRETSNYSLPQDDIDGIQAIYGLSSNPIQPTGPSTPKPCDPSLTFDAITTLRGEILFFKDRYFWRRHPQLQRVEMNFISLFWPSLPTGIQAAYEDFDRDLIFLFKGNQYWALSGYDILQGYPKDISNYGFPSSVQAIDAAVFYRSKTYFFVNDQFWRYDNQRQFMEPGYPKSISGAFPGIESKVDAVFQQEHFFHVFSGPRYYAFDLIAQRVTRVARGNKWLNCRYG

| SMILES | IC50 [1] | IC50 [2, 11] | IC50 [3] | IC50 [4] | Suppression rate of TNF-α production (release) (%) [5] | IC50 [6] | IC50 [7] | IC50 [8] | IC50 [2] | IC50 [9] | IC50 [10] | IC50 [8, 11] |
| --- | --- | --- | --- | --- | --- | --- | --- | --- | --- | --- | --- | --- |
| Cc1cc(COc2ccc(S(=O)(=O)CC(C=C3CCN(CC(C)C)CC3)N(O)C=O)cc2)c2ccccc2n1 (stereo not drawn) [Example I-24, N-Hydroxy-N-{1-(1-isobutylpiperidin-4-ylidenemethyl)-2-[4-(2-methylquinolin-4-ylmethoxy)benzenesulfonyl]ethyl}formamide] | 4 µM | 0.006 µM | 40 µM | 10 µM | 56.0% | – | – | – | – | – | – | – |
| Cc1cc(COc2ccc(S(=O)(=O)CC(CC3CCC(=O)CC3)N(O)C=O)cc2)c2ccccc2n1 (stereo not drawn) [Example I-2, N-Hydroxy-N-[2-{4-(2-methylquinolin-4-ylmethoxy)benzenesulfonyl}-1-(4-oxocyclohexylmethyl)ethyl]formamide] | 0.4 µM | – | 6 µM | 1.5 µM | 42.3% | 53 µM | 60 µM | 50 µM | – | – | – | – |
| Cc1cc(COc2ccc(S(=O)(=O)CC(C3CCCN(C(=O)OC(C)(C)C)C3)N(O)C=O)cc2)c2ccccc2n1 (stereo not drawn) [Example I-72] | 0.28 µM | – | 1.4 µM | 0.7 µM | – | 48 µM | 90 µM | 64 µM | 0.024 µM | 10 µM | 2 µM | – |
| Cc1cc(COc2ccc(S(=O)(=O)CC([C@H]3CSC(=O)N3C)N(O)C=O)cc2)c2ccccc2n1 (stereo partly drawn) [Example I-136] | 0.62 µM | – | 26 µM | 2 µM | – | 50 µM | 48 µM | 50 µM | 0.0065 µM | 13 µM | 26 µM | – |
| COCOC1CCC(C)(C(CS(=O)(=O)c2ccc(OCc3cc(C)nc4ccccc34)cc2)N(O)C=O)CC1 (stereo not drawn) [Example I-128] | 0.54 µM | – | 22 µM | 1.3 µM | – | 50 µM | > 100 µM | > 100 µM | 0.032 µM | 25 µM | 43 µM | – |
| CC(=O)N1CCC(CC(CS(=O)(=O)c2ccc(OCc3cc(C)nc4ccccc34)cc2)N(O)C=O)CC1 (stereo not drawn) [Example I-69] | 0.45 µM | – | 13 µM | 0.63 µM | – | > 100 µM | > 100 µM | > 100 µM | 0.0053 µM | 9.8 µM | 9 µM | – |
| CC(=O)N1CCC(=CC(CS(=O)(=O)c2ccc(OCc3cc(C)nc4ccccc34)cc2)N(O)C=O)CC1 (stereo not drawn) [Example I-41] | 3.7 µM | – | 50 µM | 4.8 µM | – | > 100 µM | > 100 µM | > 100 µM | 0.0031 µM | 50 µM | 41 µM | – |
| Cc1ccc(CCCC(CS(=O)(=O)c2ccc(OCc3cc(C)nc4ccccc34)cc2)N(O)C=O)cc1 (stereo not drawn) [Example I-37] | 1.1 µM | – | 6 µM | 2 µM | – | 33 µM | 57 µM | 22 µM | 0.17 µM | 25 µM | 2.7 µM | – |
| Cc1cc(COc2ccc(S(=O)(=O)CC(C3CCC4(CC3)OCCO4)N(O)C=O)cc2)c2ccccc2n1 (stereo not drawn) [Example I-28, N-{1-(1,4-dioxaspiro[4.5]dec-8-yl)-2-[4-(2-methylquinolin-4-ylmethoxy)benzenesulfonyl]ethyl}-N-hydroxyformamide] | 0.22 µM | 0.015 µM | 3.3 µM | 0.28 µM | – | 30 µM | 65 µM | – | – | 9 µM | 7 µM | 40 µM |
| Cc1cc(COc2ccc(S(=O)(=O)CC(C=C3CCN(C(=O)OC(C)(C)C)CC3C)N(O)C=O)cc2)c2ccccc2n1 (stereo not drawn) [Example I-61] | 1.8 µM | – | 10 µM | 1.5 µM | – | 54 µM | 80 µM | 62 µM | 0.0033 µM | 24 µM | 5 µM | – |
| O=CN(O)C(C=C1CCC(=NO)CC1)CS(=O)(=O)c1ccc(OCc2ccc3ccccc3n2)cc1 (stereo not drawn) [Example I-86] | 31 µM | – | 22 µM | 61 µM | – | 70 µM | > 100 µM | 70 µM | 0.42 µM | > 100 µM | 5.8 µM | – |
